Test results from patent US20240360151A1 (SANOFI, priority 2023, published 2024).

Columns and labels:
[1] = biological target: T1, NLRP3 inflammasome (Homo sapiens, UniProt Q96P20); assay: IL-1β secretion assay (NLRP3 IC50) in LPS-primed, nigericin-activated THP-1 cells, HTRF; assay type: cell-based; settings: monocytic THP-1 cells; LPS 10 ng/mL 3 h priming, then compound + nigericin 10 μM 2 h; relative IC50, 10 concentrations, geometric mean
T1 construct: endogenous in cells; host or cells: THP-1 monocytic cells
Summary of the method: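 IL-1β in supernatant read by HTRF after 2 h co-incubation of compound (0.1% DMSO, 10 concentrations, 1:3 series) with nigericin at 10 μM final, following 3 h LPS (10 ng/mL) priming of THP-1 monocytes at 37° C. Inhibition normalised to unactivated and no-compound controls; geometric-mean relative IC50 from 4-parameter logistic model.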

[2] = tested on: NF-kB pathway (TNF-α secretion by THP-1 cells); assay: TNF-α secretion assay in LPS-stimulated THP-1 cells, Lumit immunoassay; assay type: cell-based, human; settings: Homo sapiens, THP-1, 3 h, monocytic THP-1 cells, LPS 10 ng/mL, relative IC50, 10 concentrations, geometric mean
Summary of the method: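 TNF-α release was quantified directly in the cell plate by Lumit immunoassay after a 3-h, 10 ng/mL LPS trigger of compound-treated THP-1 cells (RPMI, 5% FBS). Percent inhibition versus no-compound and unstimulated controls fed a 4-parameter logistic fit over 10 concentrations, giving geometric-mean relative IC50.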

T1 sequence (Q96P20 whole entry): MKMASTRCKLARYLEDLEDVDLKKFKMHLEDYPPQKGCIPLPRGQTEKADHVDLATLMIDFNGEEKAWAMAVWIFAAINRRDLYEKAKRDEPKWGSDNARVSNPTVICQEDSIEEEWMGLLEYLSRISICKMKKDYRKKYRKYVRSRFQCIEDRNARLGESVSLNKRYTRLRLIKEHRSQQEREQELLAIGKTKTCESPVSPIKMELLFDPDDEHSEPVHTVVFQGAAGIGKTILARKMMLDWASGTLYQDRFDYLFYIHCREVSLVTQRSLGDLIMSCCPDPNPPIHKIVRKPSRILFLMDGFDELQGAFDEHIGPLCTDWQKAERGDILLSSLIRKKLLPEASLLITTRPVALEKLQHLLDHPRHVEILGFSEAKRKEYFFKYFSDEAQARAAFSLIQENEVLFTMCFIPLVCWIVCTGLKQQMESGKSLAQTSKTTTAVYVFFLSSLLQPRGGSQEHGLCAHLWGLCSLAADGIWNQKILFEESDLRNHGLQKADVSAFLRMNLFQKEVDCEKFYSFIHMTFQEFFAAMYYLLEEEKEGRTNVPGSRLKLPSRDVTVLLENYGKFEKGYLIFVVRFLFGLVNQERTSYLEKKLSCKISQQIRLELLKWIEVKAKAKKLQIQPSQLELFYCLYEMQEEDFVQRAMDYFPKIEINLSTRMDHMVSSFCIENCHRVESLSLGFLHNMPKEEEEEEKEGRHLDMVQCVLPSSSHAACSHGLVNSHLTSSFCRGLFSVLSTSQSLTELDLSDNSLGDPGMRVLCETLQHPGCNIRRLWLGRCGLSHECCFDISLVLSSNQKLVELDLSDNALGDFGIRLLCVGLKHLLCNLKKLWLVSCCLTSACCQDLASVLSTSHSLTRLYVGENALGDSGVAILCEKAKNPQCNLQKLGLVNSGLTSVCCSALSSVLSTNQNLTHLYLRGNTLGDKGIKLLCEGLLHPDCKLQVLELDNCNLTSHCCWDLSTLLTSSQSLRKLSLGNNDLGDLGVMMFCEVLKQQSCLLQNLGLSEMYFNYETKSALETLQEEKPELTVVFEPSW

Compound	IC50 [1]	IC50 [2]
Cc1cc(C(F)(F)F)cc(O)c1-c1ccc(N2CCN(C)CC2)nn1 [Example 29, 3-methyl-2-[6-(4-methylpiperazin-1-yl)pyridazin-3-yl]-5-(trifluoromethyl)phenol]	332 nM	> 10000 nM
Cc1cc(C)c(-c2ccc(N3CC[C@@H](CO)C3=O)nn2)c(O)c1 (single isomer, unassigned) [Example 140]	210 nM	> 10000 nM
Cc1cc(C(F)(F)F)cc(O)c1-c1ccc(N2CCO[C@H]3CCN(C)C[C@@H]32)nn1 (single isomer, unassigned) [Example 343]	47 nM	> 10000 nM
Cc1ccc(-c2nnc(N3CCO[C@H](CO)C3)c(C)c2C)c(O)c1 [Example 80, 2-[6-[(2S)-2-(hydroxymethyl)morpholin-4-yl]-4,5-dimethyl-pyridazin-3-yl]-5-methyl-phenol]	208 nM	> 10000 nM
Cc1cc(Cl)cc(O)c1-c1cc(C#N)c(N2CCO[C@H](CO)C2)nn1 [Example 163, 6-(4-chloro-2-hydroxy-6-methyl-phenyl)-3-[(2S)-2-(hydroxymethyl)morpholin-4-yl]pyridazine-4-carbonitrile]	7 nM	> 10000 nM
Cc1cc(N2CCO[C@@H]3CCN(C)C[C@@H]32)nnc1-c1ccc(C(F)(F)F)cc1O [Example 430, 2-[6-[(4aS,8aR)-6-methyl-3,4a,5,7,8,8a-hexahydro-2H-pyrido[4,3-b][1,4]oxazin-4-yl]-4-methyl-pyridazin-3-yl]-5-(trifluoromethyl)phenol]	< 0.3 nM	> 10000 nM
Cc1ccc(-c2nnc(N3CC[C@@H]4CCN(C)C[C@@H]43)cc2C)c(O)c1 (racemic) [Example 341, 5-methyl-2-[4-methyl-6-[rac-(3aS,7aR)-6-methyl-3,3a,4,5,7,7a-hexahydro-2H-pyrrolo[2,3-c]pyridin-1-yl]pyridazin-3-yl]phenol]	1 nM	> 10000 nM
Cc1cc(C)c(-c2cc(C(F)F)c(N3CCO[C@@H]4CCN(C)C[C@@H]43)nn2)c(O)c1 [Example 291, 2-[6-[(4aS,8aR)-6-methyl-3,4a,5,7,8,8a-hexahydro-2H-pyrido[4,3-b][1,4]oxazin-4-yl]-5-(difluoromethyl)pyridazin-3-yl]-3,5-dimethyl-phenol]	1 nM	> 10000 nM
CC(=O)NC[C@H]1CN(c2ccc(-c3c(C)cc(C(F)(F)F)cc3O)nn2)CCO1 [Example 275, N-[[(2S)-4-[6-[2-hydroxy-6-methyl-4-(trifluoromethyl)phenyl]pyridazin-3-yl]morpholin-2-yl]methyl]acetamide]	127 nM	> 10000 nM
Cc1cc(C)c(-c2ccc(N3CCO[C@@H](CO)C3)nn2)c(O)c1 [Example 9, 2-[6-[(2R)-2-(hydroxymethyl)morpholin-4-yl]pyridazin-3-yl]-3,5-dimethyl-phenol]	113 nM	> 10000 nM
CC(=O)NC[C@H]1CCCN(c2ccc(-c3c(C)cc(Cl)cc3O)nn2)C1 [Example 212, N-[[(3R)-1-[6-(4-chloro-2-hydroxy-6-methyl-phenyl)pyridazin-3-yl]-3-piperidyl]methyl]acetamide]	39 nM	> 10000 nM
CC(=O)N1CC[C@H]2OCCN(c3ccc(-c4c(C)cc(Cl)cc4O)nn3)[C@H]2C1 (single isomer, unassigned) [Example 397]	23 nM	> 10000 nM
[2H]C([2H])(O)[C@@H]1CN(c2ccc(-c3c(C)cc(C(F)(F)F)cc3O)nn2)CCO1 [Example 192, 2-[6-[(2S)-2-[dideuterio(hydroxy)methyl]morpholin-4-yl]pyridazin-3-yl]-3-methyl-5-(trifluoromethyl)phenol]	11 nM	> 10000 nM
Cc1cc(C)c(-c2ccc(N3CCO[C@@H]4CCN(C(C)C)C[C@@H]43)nn2)c(O)c1 [Example 433, 2-[6-[(4aS,8aR)-6-isopropyl-3,4a,5,7,8,8a-hexahydro-2H-pyrido[4,3-b][1,4]oxazin-4-yl]pyridazin-3-yl]-3,5-dimethyl-phenol]	2 nM	> 10000 nM
Cc1cc(C(F)(F)F)cc(O)c1-c1ccc(N2CC[C@H]3CN(C)C[C@H]32)nn1 (racemic) [Example 265, 2-[6-[rac-(3aS,6aS)-5-methyl-2,3,3a,4,6,6a-hexahydropyrrolo[3,4-b]pyrrol-1-yl]pyridazin-3-yl]-3-methyl-5-(trifluoromethyl)phenol]	314 nM	> 10000 nM
Cc1cc(C)c(-c2ccc(N3CCc4c(CO)cccc43)nn2)c(O)c1 [Example 241, 2-[6-[4-(hydroxymethyl)indolin-1-yl]pyridazin-3-yl]-3,5-dimethyl-phenol]	250 nM	> 10000 nM
Cc1ccc(-c2nnc(N3CCO[C@@H]4CCN(C)C[C@@H]43)cc2C(F)F)c(O)c1 [Example 295, 2-[6-[(4aS,8aR)-6-methyl-3,4a,5,7,8,8a-hexahydro-2H-pyrido[4,3-b][1,4]oxazin-4-yl]-4-(difluoromethyl)pyridazin-3-yl]-5-methyl-phenol]	2 nM	> 10000 nM
Cc1cc(C)c(-c2ccc(N3CCO[C@H]4CCNC[C@H]43)nn2)c(O)c1 [Example 314, 2-[6-[(4aR,8aS)-2,3,4a,5,6,7,8,8a-octahydropyrido[4,3-b][1,4]oxazin-4-yl]pyridazin-3-yl]-3,5-dimethyl-phenol]	18 nM	> 10000 nM
Cc1cc(C(F)(F)F)cc(O)c1-c1ccc(N2CCOC(C(C)(C)O)C2)nn1 (stereo not drawn) [Example 26, 2-[6-[2-(1-hydroxy-1-methyl-ethyl)morpholin-4-yl]pyridazin-3-yl]-3-methyl-5-(trifluoromethyl)phenol]	352 nM	> 10000 nM
Cc1cc(Cl)cc(O)c1-c1ccc(N2CCO[C@H](CNC(=O)C(C)C)C2)nn1 [Example 279, N-[[(2R)-4-[6-(4-chloro-2-hydroxy-6-methylphenyl)pyridazin-3-yl]morpholin-2-yl]methyl]-2-methylpropanamide]	277 nM	> 10000 nM
CC(=O)N1C[C@@H]2CCN(c3ccc(-c4c(C)cc(C(F)(F)F)cc4O)nn3)[C@@H]2C1 (racemic) [Example 228, 1-[rac-(3aS,6aS)-1-[6-[2-hydroxy-6-methyl-4-(trifluoromethyl)phenyl]pyridazin-3-yl]-2,3,3a,4,6,6a-hexahydropyrrolo[3,4-b]pyrrol-5-yl]ethanone]	271 nM	> 10000 nM
CC(=O)NC[C@@H]1CCCN(c2ccc(-c3c(C)cc(C(F)(F)F)cc3O)nn2)C1 [Example 164, N-[[(3S)-1-[6-[2-hydroxy-6-methyl-4-(trifluoromethyl)phenyl]pyridazin-3-yl]-3-piperidyl]methyl]acetamide]	81 nM	> 10000 nM
OC[C@@H]1CN(c2nnc(-c3ccc(Cl)cc3O)c3c2CCC3)CCO1 [Example 78, 5-chloro-2-[4-[(2S)-2-(hydroxymethyl)morpholin-4-yl]-6,7-dihydro-5H-cyclopenta[d]pyridazin-1-yl]phenol]	436 nM	> 10000 nM
Cc1cc(N2CC[C@@H]3CCN(C)C[C@@H]32)nnc1-c1ccc(C(F)(F)F)cc1O (single isomer, unassigned) [Example 366]	25 nM	> 10000 nM
